Test results: patent US12144896B2, “Drug delivery system” (INSERM (INSTITUT NATIONAL DE LA SANTÉ ET DE LA RECHERCHE …, priority 2018, dated 2024)
Where “and” joins values, the source holds several entries; their conditions need not be identical. Equal values may be shown once. One block for each compound: values may come before it.

Experiments:
HT-29 cells = assay: MTS cell viability test on HT-29 cells; format: cell-based, Human; conditions: HT-29, 24 h incubation at 37° C., 0-200 μM
Description: (§1) Human lung alveolar carcinoma A549 cells, provided by Prof. L. Migliore, University of Pisa, were grown in Ham's F12 medium supplemented with 10% Fetal Bovine Serum (FBS), 1 mM Gln, and antibiotics. Human colorectal adenocarcinoma HT-29 cells, provided by Prof. P. Petronini, University of Parma, were grown in DMEM High (glucose 4.5 g/1) supplemented with 10% FBS, 2 mM Gln and antibiotics. Cells were incubated at 37° C. at 5% CO2; after thawing, all cells were used for less than ten passages.
(§2) 3.5×10^3 B6KPC3 and A549 cells and 7.5×10^3 HT-29 cells were seeded into 96-well plates. […] After 24 h, cell viability was evaluated through MTS Cell Proliferation Colorimetric Assay Kit (Novus Biologicals, Abingdon, UK). […] In preliminary experiments the time of exposure to MTS (1 h for HT-29 and 3 h for A549 cells) was determined according to the metabolism of each cell type. Absorbance was measured at 492 nm with a microplate reader (EnSpire® Multimode Plate Reader, Perkin Elmer, Boston, Mass., USA).
(§3) Cell viability (CV) percentage was evaluated through the following formula: CV (%)=(Absorbance(treated wells))/(Absorbance(control wells))×100 with Absorbance (control wells) considered the absorbance of untreated cells incubated in medium without drugs. […]
(§4) Oxaliplatin, DACHPt, and Blank nanoparticles are thus used as controls. Viability was then evaluated with the MTS assay (see Material and Methods). […]

[1] = Pharmacokinetics after IV bolus injection, two-compartment analysis of plasma Pt; conditions: mice, 35 μg Pt/mice
Description: At specific time points, 15, 30 min, 1, 1.5, 3, 5, 8 and 12 h post dose, 200 μl of blood was taken and separated from plasma. Pt content was detected using ICP/MS.
A first-order, two-compartment model with bolus administration, expressed in terms of CL and V was applied to fit the data, using 1/yhat^2 as weighting function.
Based on the profile obtained (FIGS. 3A and 3B), the data were analyzed using a two-compartmental model.

A549 cells = assay: MTS cell viability test on A549 cells; format: cell-based, Human; conditions: A549, 24 h incubation at 37° C., 0-200 μM
Description: as §1, §2, §3, §4

B6KPC3 cells = assay: MTS cell viability test on B6KPC3 cells; format: cell-based; conditions: B6KPC3, 24 h incubation at 37° C., 0-200 μM
Description: 3.5×10^3 B6KPC3 and A549 cells and 7.5×10^3 HT-29 cells were seeded into 96-well plates. […] After 24 h, cell viability was evaluated through MTS Cell Proliferation Colorimetric Assay Kit (Novus Biologicals, Abingdon, UK). Briefly, medium was removed, and 100 μL of MTS solution diluted 1:10 in serum-free medium were added in each well. In preliminary experiments the time of exposure to MTS (1 h for HT-29 and 3 h for A549 cells) was determined according to the metabolism of each cell type. Absorbance was measured at 492 nm with a microplate reader (EnSpire® Multimode Plate Reader, Perkin Elmer, Boston, Mass., USA).
Cell viability (CV) percentage was evaluated through the following formula: CV (%)=(Absorbance(treated wells))/(Absorbance(control wells))×100 with Absorbance (control wells) considered the absorbance of untreated cells incubated in medium without drugs. G.3 Results for Viability Studies on HT-29, A549 and B6KPC3 Cells: MTS Test
Oxaliplatin, DACHPt, and Blank nanoparticles are thus used as controls. Viability was then evaluated with the MTS assay (see Material and Methods). Data were expressed as % of control (untreated cells). Data are means±SD of two experiments with 3 determinations each.

[2] = test system: multicellular HT116 spheroids; assay: Multicellular tumor spheroid (MCTS) volume follow-up; format: cell-based
Excerpt: Multi cellular tumor spheroids (MCTS) were formed according to a previous published method [Virgone-Carlotta A, Lemasson M, Mertani H C, et al. In-depth phenotypic characterization of multicellular tumor spheroids: Effects of 5-Fluorouracil. PLOS ONE. 2017; 12(11):e0188100. doi: 10.1371/journal.pone.0188100]. Briefly, MCTS were formed using HTC-116 cell line in Ultra Low Attachment (ULA) 96 wells Round-Bottom plate (Greiner bio-one) to avoid cell-substrate attachment. The cells were trypsinized and were counted using a Malassez grid in order to obtain 2,400 cells per milliliter. This concentration of cells (i.e., 480 cells per well in a volume of 200 μL) was chosen in order to obtain a single spheroid per well, with a spheroid diameter at the end of the experimentation not exceeding 500 μm. The plate was centrifuged for 5 minutes at 1,200 g at room temperature to initiate the formation of spheroids. The plate was placed in the incubator under agitation at 37° C. and 5% CO2 during the whole experiment. At the end of the first day after seeding, 100 μL of culture medium was added to ensure proper 3D growth. […] The treatment was renewed during 3 days. Results are shown on FIGS. 4 to 6.
Blank NP were also used to assess nonspecific toxicity that could arise from the system. MCTS were monitored at day 0, 1, 2, 3, 4, and 7 day post treatment. Eight spheroids (n=8) were probed at each concentration (5, 25 and 50 μM). A ring of detaching cells appeared spontaneously after one day of treatment. The spheroids were transferred into new well plates to eliminate mechanically this uncohesive peripheral cell layer and to renew the drug and culture medium. Therefore, the reduction in volume monitored during treatment arose from a loss of viability as well as from a loss of cohesiveness.
We performed edge detection using a sobel threshold for each spheroid using the Image J software. The resulting binary images were fitted to an ellipse of major (LM) and minor (Lm) axes using the ImageJ “Analyse Particles” plugins. From this, a mean diameter was calculated, D=(LM+Lm)/2. The volume V was then determined assuming that the spheroids are spherical V=πD3/6. Results are shown on FIG. 7.
The volume of MCTS was evaluated from phase contrast microscopy images as a readout of cytotoxic effect. The data reported in FIGS. 4-6 represent normalized MCTS volume for different treatments with respect to the control volume (MCTS not treated). Three different drug concentrations were tested: 5, 25 and 50 μM.

[3] = clinical studies, end of a 2-hr infusion; cited from earlier work

IC50 (HT-29 cells): 39 µM
Compound: NC1CCCCC1N.[Pt+2] (stereo not shown) [DACHPt, di-aqua(1,2-diaminocyclohexane)platinum(II)]

Compound: (R,R)-1,2-diaminocyclohexane(ethanedioato-O,O)platinum [Oxaliplatin]
AUMC [1]: 65.1 ± 23.8 hr*hr*mg/L
K12 (rate constant central to peripheral compartment) [1]: 4.14 ± 0.72 h⁻¹
K21 (rate constant peripheral to central compartment) [1]: 0.398 ± 0.054 h⁻¹
Q [1]: 0.060 ± 0.008 L/h
Vc [1]: 0.014 ± 0.004 L
Vp [1]: 0.15 ± 0.02 L
Vss [1]: 0.165 L
K21 (rate constant peripheral to central compartment) ([1]; listed as oxaliplatin): 0.398 h⁻¹
K12 (rate constant central to peripheral compartment) ([1]; listed as oxaliplatin solution): 4.14 h⁻¹
Vc ([1]; listed as oxaliplatin solution): 0.014 L
Vp ([1]; listed as oxaliplatin solution): 0.150 L
AUC ([1]; plasma): 3760 ng·h/mL
Alpha_HL (distribution half-life) ([1]; plasma): 8.1 min
CL ([1]; plasma clearance): 0.010 L/h
Beta_HL (elimination half-life) ([1]; plasma, listed as oxaliplatin solution): 13.6 h and 13 h
Cmax ([1]; time 0 hr): 2480 ng/mL
IC50 (A549 cells): 11 µM
IC50 (A549 cells; listed as oxaliplatin reference solution): 12 µM
IC50 (B6KPC3 cells): 23 µM
size reduction (%) of spheroids compared to control spheroids at the same day ([2]; 5 μM, Day 0): −1.21%
size reduction (%) of spheroids compared to control spheroids at the same day ([2]; 5 μM, Day 1): 4.52%
size reduction (%) of spheroids compared to control spheroids at the same day ([2]; 5 μM, Day 2): 15.86%
size reduction (%) of spheroids compared to control spheroids at the same day ([2]; 5 μM, Day 3): 24.88%
size reduction (%) of spheroids compared to control spheroids at the same day ([2]; 5 μM, Day 4): 28.73%
size reduction (%) of spheroids compared to control spheroids at the same day ([2]; 25 μM, Day 0): 0.59%
size reduction (%) of spheroids compared to control spheroids at the same day ([2]; 25 μM, Day 1): 16.06%
size reduction (%) of spheroids compared to control spheroids at the same day ([2]; 25 μM, Day 2): 29.27%
size reduction (%) of spheroids compared to control spheroids at the same day ([2]; 25 μM, Day 3): 40.23%
size reduction (%) of spheroids compared to control spheroids at the same day ([2]; 25 μM, Day 4): 45.93%
size reduction (%) of spheroids compared to control spheroids at the same day ([2]; 25 μM, Day 7): 52.04%
size reduction (%) of spheroids compared to control spheroids at the same day ([2]; 50 μM, Day 0): 0.62%
size reduction (%) of spheroids compared to control spheroids at the same day ([2]; 50 μM, Day 1): 16.78%
size reduction (%) of spheroids compared to control spheroids at the same day ([2]; 50 μM, Day 2): 32.53%
size reduction (%) of spheroids compared to control spheroids at the same day ([2]; 50 μM, Day 3): 44.17%
size reduction (%) of spheroids compared to control spheroids at the same day ([2]; 50 μM, Day 4): 48.93%
size reduction (%) of spheroids compared to control spheroids at the same day ([2]; 50 μM, Day 7): 71.67%
appearance of treated spheroids on photographs ([2]; 50 μM, FIG. 7): few cells are still present and formed aggregates
IC50 (HT-29 cells): 74 µM
administered platinum present in the systemic circulation [3]: 15%
